What was measured:
[1] = Displacement of [3H]PK11195 from peripheral benzodiazepine receptor
Mus musculus [2] = organism: Mus musculus; test: In vitro photodynamic therapy efficacy (0.06 uM) in RIF tumor cells using MTT assay; expressed as light dose; assay type: functional
Mus musculus [3] = organism: Mus musculus; test: In vitro photodynamic therapy efficacy (1.0 uM) in RIF tumor cells using MTT assay; expressed as light dose; assay type: functional

Structure (SMILES)	IC50 [1]	LD50 (Mus musculus [2])	LD50 (Mus musculus [3])
O=C(Cc1c[nH]c2ccccc12)NCCCCCCNc1ccc([N+](=O)[O-])c2nonc12	0.32 µM	–	–
CCC(C)N(C)C(=O)c1cc2ccccc2c(-c2ccccc2Cl)n1 (stereo not drawn) [PK-11195]	0.39 µM	–	–
C=Cc1c(C)c2cc3nc(c4c5nc(cc6[nH]c(cc1[nH]2)c(C)c6CC)C(C)=C5C(=O)C4)[C@@H](CCC(=O)OC)[C@@H]3C	1.82 µM	>2 J/cm2	Toxic
C=Cc1c(C)c2[n]3c1=CC1=[N+]4C(=Cc5c(C)c6c7[n]5[Zn-2]34[N+]3=C(C=2)[C@@H](C)[C@H](CCC(=O)OC)C3=C7CC6=O)C(CC)=C1C (stereo partly drawn)	2.89 µM	>2 J/cm2	0.7 J/cm2
C=Cc1c(C)c2cc3nc(c4c5nc(cc6[nH]c(cc1[nH]2)c(C)c6CC)C(C)=C5C(=O)C4)[C@@H](CCC(=O)NCCCCCCNc1ccc([N+](=O)[O-])c2nonc12)[C@@H]3C	37.1 µM	>2 J/cm2	>2 J/cm2
CCCCCCOC(C)C1=C(C)c2cc3nc(c4c5[nH]c(cc6[nH]c(cc1n2)c(C)c6CC)c(C)c5C(=O)C4)[C@@H](CCC(=O)OC)[C@@H]3C (stereo partly drawn)	17 µM	0.43 J/cm2	–
